In patent US4755509A, “Heterocyclic aldose reductase inhibitors and methods of using them” (Carbipem, priority 1984, dated 1988):
Counter-ions that a name gives are not always drawn.

Biological target: T1, aldose reductase (Rattus norvegicus, UniProt P07943)
T1 construct: rat lens homogenate used as a source of enzyme; from tissue; host or cells: rat lens homogenate
Experiment: in vitro inhibition of aldose reductase from rat lens homogenate (DL-glyceraldehyde substrate, NADPH, spectrophotometry at 340 nm)
Format: biochemical
Settings: for inhibition at 100 µM: concentration 10^-4 mol/liter; for inhibition at 10 µM: concentration 10^-5 mol/liter; for inhibition at 0.1 µM: concentration 10^-7 mol/liter; for inhibition at 1 µM: concentration 10^-6 mol/liter; for IC50: n = average of 3 determinations (Example 132: average of 2 determinations); for inhibition at 0.01 µM: concentration 10^-8 mol/liter
Description: The inhibitory activity on aldose reductase is evaluated in vitro starting from a rat lens homogenate used as a source of enzyme. The substrate used is DL-glyceraldehyde, which is converted by aldose reductase to glycerol in the presence of NADPH (*). This reaction is followed by spectrophotometry at 340 nm in the absence and in the presence of the inhibitors to be tested, the variation in optical density being proportional to the oxidation of the reduced coenzyme.
The results are shown in Table I below and represent, for different examples, the percentage inhibition of the enzymatic activity, relative to the control activity, as a function of the different concentrations (mol.l^-1) used.

[1] = read-out: Inhibition relative to the control activity, %

| inhibition at 100 µM [1] | inhibition at 10 µM [1] | inhibition at 0.1 µM [1] | inhibition at 1 µM [1] | IC50 | inhibition at 0.01 µM [1] | inhibition at 0.001 µM (concentration 10^-9 mol/liter, read-out: Inhibition relative to the control activity, %) | Structure (SMILES) |
| --- | --- | --- | --- | --- | --- | --- | --- |
| 90% | 57% | 3% | – | – | – | – | O=C(O)CN1C(=O)CSc2ccc(C(F)(F)F)cc21 [Example 115, 6-Trifluoromethyl-2H-1,4-benzothiazin-3-one-4-acetic acid] |
| 98% | 91% | – | 10% | – | – | – | O=C(O)CN1C(=O)CSc2ccc(F)cc21 [Example 118, 6-Fluoro-2H-1,4-benzothiazin-3-one-4-acetic acid] |
| 99% | 91% | 12% | – | – | – | – | CC1Sc2ccccc2N(CC(=O)O)C1=O (stereo not shown) [Example 125, 2-Methyl-2H-1,4-benzothiazin-3-one-4-acetic acid] |
| 100% | 99% | 54% | – | 86 ± 4 nM | – | – | O=C(O)CN1C(=S)COc2ccc(F)cc21 [Example 152, 6-Fluoro-2H-1,4-benzoxazine-3-thione-4-acetic acid] |
| – | 98% | 93% | – | – | 28% | – | O=C(O)CN1C(=S)CSc2cc(Cl)ccc21 [Example 127, 7-Chloro-2H-1,4-benzothiazine-3-thione-4-acetic acid] |
| 95% | 86% | – | 6% | – | – | – | O=C(O)CN1C(=O)CNc2ncccc21 [Example 114, Pyrido[2,3-b][1,4]pyrazin-2(3H)-one-1-acetic acid hydrochloride] |
| 97% | 86% | 10% | – | – | – | – | O=C(O)CN1C(=O)CSc2ccccc21 [Example 124, 2H-1,4-Benzothiazin-3-one-4-acetic acid] |
| – | 94% | 80% | – | – | 13% | – | CC1Sc2ccc(F)cc2N(CC(=O)O)C1=S (stereo not shown) [Example 137, 6-Fluoro-2-methyl-2H-1,4-benzothiazine-3-thione-4-acetic acid] |
| 100% | 98% | 67% | – | 46 ± 2 nM | 22% | – | O=C(O)CN1C(=S)CSc2ccc(F)cc21 [Example 119, 6-Fluoro-2H-1,4-benzothiazine-3-thione-4-acetic acid] |
| 100% | 95% | – | 25% | – | – | – | O=C(O)CN1C(=O)CSc2cc(F)ccc21 [Example 116, 7-Fluoro-2H-1,4-benzothiazin-3-one-4-acetic acid] |
| 97% | 92% | 16% | – | – | – | – | O=C(O)CN1C(=O)CSc2cc(Cl)ccc21 [Example 121, 7-Chloro-2H-1,4-benzothiazin-3-one-4-acetic acid] |
| – | 98% | 69% | – | 54 ± 5 nM | 18% | – | O=C(O)CN1C(=S)CSc2ccccc21 [Example 133, 2H-1,4-Benzothiazine-3-thione-4-acetic acid] |
| 96% | 80% | 5% | – | – | – | – | O=C(O)CN1C(=O)CSc2nc(Cl)ccc21 [Example 111, 6-Chloropyrido[2,3-b]thiazin-2(3H)-one-1-acetic acid] |
| – | 99% | 95% | – | – | 17% | – | O=C(O)CN1C(=S)C(c2ccccc2)Sc2ccccc21 (stereo not shown) [Example 130, 2-Phenyl-2H-1,4-benzothiazine-3-thione-4-acetic acid] |
| 97% | 81% | 0% | – | – | – | – | O=C(O)CN1C(=O)CSc2cc(Cl)c(C(F)(F)F)cc21 [Example 123, 6-Trifluoromethyl-7-chloro-2H-1,4-benzothiazin-3-one-4-acetic acid] |
| – | 74% | – | – | – | 5% | – | O=C(O)CN1C(=S)CSc2cc(Cl)c(C(F)(F)F)cc21 [Example 129, 6-Trifluoromethyl-7-chloro-2H-1,4-benzothiazine-3-thione-4-acetic acid] |
| 95% | 82% | 11% | 37% | – | 4% | 9% | O=C(O)CN1C(=O)CSc2ncccc21 [Example 110, Pyrido[2,3-b]thiazin-2(3H)-one-1-acetic acid] |
| 100% | 100% | 65% | – | 82 ± 1 nM | 5% | – | O=C(O)CN1C(=S)CSc2cc(F)ccc21 [Example 117, 7-Fluoro-2H-1,4-benzothiazine-3-thione-4-acetic acid] |
| – | 95% | 30% | – | – | 11% | – | CC1Sc2ccc(F)cc2N(CC(=O)O)C1=O (stereo not shown) [Example 136, 6-Fluoro-2-methyl-2H-1,4-benzothiazin-3-one-4-acetic acid] |
| – | 94% | 56% | – | 91 ± 15 nM | 29% | – | O=C(O)CN1C(=S)CCc2cc(Cl)ccc21 [Example 154, 6-Chloro-3,4-dihydroquinoline-2-thione-1-acetic acid] |
| 96% | 73% | 16% | – | – | – | – | CC1(c2ccccn2)Sc2ccccc2N(CC(=O)O)C1=O (stereo not shown) [Example 151, 2-Methyl-2-(pyridin-2'-yl)-2H-1,4-benzothiazin-3-one-4-acetic acid] |
| – | 95% | 92% | – | 42 ± 13 nM | 16% | – | CC1Sc2ccccc2N(CC(=O)O)C1=S (stereo not shown) [Example 132, 2-Methyl-2H-1,4-benzothiazine-3-thione-4-acetic acid] |
